Results published in patent US20120315624A1, “Using LNA Flow-Fish to Quantitatively Monitor Viral Infections in Infected Cells and Test the Efficacy of Antiviral Medications” (priority 2011, published 2012).

Assays:
Sindbis virus (SV) [1] = assay: LNA flow-FISH of Sindbis virus RNA in infected cells with and without antiviral; assay type: cell-based
Description: Cells were infected with the virus of interest and harvested at various timepoints during infection. Cells were harvested and fixed with 4% paraformaldehye and 5% acetic acid in phosphate-buffered saline (PBS) for 10 min at room temperature. After fixation, the cells were washed twice in PBS and stored at 4° C. until use.
A control oligonucleotide and a specific biotinylated LNA-modified DNA oligonucleotide were used for the quantification of SV RNA. The sequences of the probes along with other relevant details are found in reference 30. The control probe is a nonspecific 22-mer oligonucleotide (nonspecific LNA) lacking complementarity to cellular nucleic acids and having a Tm of 75° C. The specific LNA probe (SV LNA), complementary to the SV RNA portion encoding the structural proteins, was also a 22-mer with a Tm of 76° C. Each had approximately one-third locked nucleic acid content.
When ready to detect the virus present in the cells at various timepoints, the cells were permeabilized with 0.1 μg/mL Proteinase K in TE buffer (pH 8.0) for 30 min at 37° C. The cells were then washed twice with PBS. A pre-hybridization step was then carried out under the same conditions as the hybridization, but without LNA probe. After pre-hybridization, a solution of 0.1× saline-sodium citrate (SSC) buffer was added followed by centrifugation and removal of the supernatant. […]
To use the LNA flow-FISH method to study the efficacy of antiviral medication, before, during, or after infection, cells were treated with an antiviral compound and left for various amounts of time. […] The change in viral nucleic acid with antiviral treatment can be quantified by taking the mean fluorescence intensity (MFI) or by examining the percent of infected cells compared to uninfected cells.
(§1) As an example, Sindbis virus (SV) was used along with Ribavirin (Rbv), an antiviral, to test the LNA flow-FISH method for studying the action and efficacy of antiviral medications. […] Samples infected with SV with and without Rbv were analyzed by LNA flow-FISH.

Sindbis virus (SV) [2] = assay: EGFP signal of the recombinant Sindbis virus measured by flow cytometry; assay type: cell-based; conditions: SV-infected cells, 6-h incubation with Rbv, FIG. 4
Description: Sindbis virus (SV) was used to test the LNA flow-FISH method for the quantitative monitoring of a viral infection in cells. After infecting cells with SV, cells were collected at different timepoints and their mean fluorescence intensity (MFI) was measured using flow cytometry. The LNA flow-FISH technique was directly compared with a genetic recombination method of measuring viral infection—this was possible because the SV strain has an enhanced green fluorescent protein (eGFP) construct incorporated into the viral RNA. […] In addition, lysed cells were used to compare the LNA flow-FISH results with QRT-PCR.
To use the LNA flow-FISH method to study the efficacy of antiviral medication, before, during, or after infection, cells were treated with an antiviral compound and left for various amounts of time. The LNA flow-FISH method is then used as described above. The change in viral nucleic acid with antiviral treatment can be quantified by taking the mean fluorescence intensity (MFI) or by examining the percent of infected cells compared to uninfected cells.
as §1

[3] = system: many DNA and RNA viruses including Sindbis; conditions: general statement on the nucleoside analog; cited from earlier work

With `NC(=O)c1ncn([C@@H]2O[C@H](CO)[C@@H](O)[C@H]2O)n1` [Rbv, Ribavirin] the “viral replication (SV RNA by LNA flow-FISH)” value (Sindbis virus (SV) [1]; 6-h incubation with Rbv, FIG. 4) was “reduction in viral replication”, the “mean fluorescence intensity (MFI) of samples with Rbv versus samples without antiviral” value (Sindbis virus (SV) [1]; 6 h, SV LNA flow-FISH and EGFP, FIG. 4) was “drastically lower” and the “uninfected cells in the population when Rbv present” value (Sindbis virus (SV) [1]; 6 h with Rbv) was “no uninfected cells were observed”. For the same compound, the “viral expression (EGFP)” value (Sindbis virus (SV) [2]) was “reduction” and the replication of viruses [3] was “inhibits the replication of many DNA and RNA viruses including Sindbis”.
